Source: patent publication US20040054130A1, “Insulin potentiating peptides” (priority 2000, published 2004)
Square brackets hold non-standard residues; d marks the D form. Ends that are not written are not given here. Cha = N[C@@H](CC1CCCCC1)C(=O)O

Legend:
[1] = system: Zucker (fa/fa) rat hemidiaphragm muscle; assay: In vitro glycogen synthesis (glucose incorporation into glycogen) in hemidiaphragm muscle with exogenous insulin; format: cell-based; design: key to Activity: insulin-potentiating: improved activity compared to insulin alone; inactive: equal activity compared to insulin alone; insulin antagonist: reduced activity compared to insulin alone; *-**: increasing insulin-potentiating activity; conditions: for insulin-potentiating activity on in vitro glycogen synthesis (in words): with 1 mU/ml exogenous insulin
Method: In vitro insulin-potentiating effects of the synthetic peptide analogues were assessed by measuring the rates of exogenous glucose incorporation into glycogen in rat hemidiaphragms (Lim et al, 1992). Hemidiaphragms from overnight-fasted Zucker fatty(fa/fa) female rats were dissected, and divided into segments of approximate 35-50 mg each. Tissues from the same rat were used for all groups. The tissue was incubated in 2 ml of Krebs-Ringer bicarbonate (KRB) buffer (pH 7.4) containing [^14C]glucose (5.5 mM, final specific activity 0.05 mCi/mmol) under an atmosphere of 95% 02-5% CO2 at 37° C. for 1.5 hr. After incubation, tissues were removed, washed with cold buffer and blotted. Tissues were digested, the muscle glycogen was precipitated and the ^14C-radioactivity was counted in a Wallac 1410 liquid scintillation counter. The biological activity of peptide analogues was measured as the rate of mmol glucose incorporation into muscle glycogen/g tissue/hr.
The sensitivity of hemidiaphragm muscle tissue to insulin (0.1-100 mU/ml) on glycogen synthesis was first analyzed. The dose response curves for peptide analogues on the insulin-potentiating effect to glycogen synthesis were then measured using cumulative increasing concentrations (10^−3 10 μmol/ml) of peptides in the presence of insulin (1 mU/ml). The biological activity of each peptide analogue was measured as the rate of glucose incorporation into muscle glycogen (μmol/g tissue/hr), and represented by the mean±SEM from eight determinations.
To determine the insulin-potentiating effect of the peptide analogues, the rates of incorporation of glucose into muscle glycogen were measured. The rates of glycogen synthesis (μmol/g tissue/hr) were 0.52±0.05, 0.60±0.04, 1.27±0.06 and 1.52±0.07 inresponse to 0.33, 1, 3.33 and 10 mU/ml insulin respectively, as shown in FIG. 1.
The insulin-potentiating effect of the peptide analogues was then observed by studying their dose response. curves for glucose incorporation into glycogen in the presence of 1 mU/ml exogenous insulin. The effects of peptides 1, 3, 4, 6, 7, 8 and 10 were evident at doses higher than 0.01 μmol/ml, and continued to increase with increasing peptide concentration to 1 μmol/ml, as shown in FIGS. 2A and 2B.
The activity of each analogue was assessed by in vitro measurement of glycogen synthesis in muscle, as described above.

[2] = system: Zucker fatty (fa/fa) rats; assay: Basal blood glucose determination after i.p. peptide; format: in vivo, rat; conditions: 10 μmol/kg body weight i.p., over 150 min, vs saline
Method: Overnight-fasted Zucker fatty(fa/fa) female rats were anaesthetized with sodium pentobarbitone (60 mg/kg body weight). After 45 min, basal blood glucose samples were taken from the tail vein, followed immediately by intraperitoneal (i.p.) injection of saline (control) or the peptide analogue (test, 10 μmol/kg body weight) in 0.4 ml of saline. Blood samples were taken at 15, 30, 60, 90, 120, 150 minutes after injection, and the blood glucose level in each sample was measured immediately by the glucose oxidase method, using a YSI Model-2300 STAT glucose analyzer (Yellow Spring, Ohio). Six animals for each group were used.
The reduction of basal blood glucose levels in animals by different peptide analogues administered intraperitoneally (i.p.)at a dose of 10 μmol/kg body weight was measured for over 150 min.

normal male Wistar rats = assay: Intravenous insulin tolerance test (IVITT); format: in vivo, rat; conditions: 5 μmol/kg i.v.; for insulin-potentiating effect on decreasing blood glucose in IVITT (in words): from 30 min after commencement; for Reduction in Blood Glucose: 0.1 U insulin/kg
Method: IVITTs (0.1 U insulin/kg body weight) were performed on overnight-fasted Wistar male rats as previously described (Lim et al, 1992). Blood samples were taken for glucose estimation at 15, 30, 45, 60 min after the commencement of the tests. Six animals in each group were used.
IVITTs were performed on normal male Wistar rats after a single intravenous (i.v.) injection of the hGH peptide analogues at a dose of 5 μmol/kg body weight. The insulin-potentiating effects of peptides 6, 7, 8 and 10 on decreasing blood glucose levels of treated animals became significant since 30 min after the commencement of the test. Bioactivity was retained when the Arg^8 or Phe^10 residue of Asu^11-hGH(6-13) peptide was substituted with Lys or Tyr respectively (1.92±0.17 or 1.62±0.18 vs. 1.65±0.12 mmol/L at 45 min), as shown in Table 3. However, no insulin-potentiating effect was observed when either Arg^8 or Phe^10 was substituted by Gly (0.92±0.08 or 1.08±0.08 mmol/L respectively vs. 1.00±0.10 mmol/L of control at 45 min). Asu^11-hGH(8-13) also elicited this insulin-potentiating effect, but with lower potency.

[3] = system: insulin-resistant Zucker fatty (fa/fa) rats; conditions: glucose clamp technique; cited from earlier work
[4] = molecular target: insulin receptor tyrosine kinase (Homo sapiens, UniProt P06213); conditions: cited from earlier work
[5] = Table 6 (corrected), summary of Table 5

## Arg-Gly-Phe-Cha-NH2 (RGF[Cha]-NH2; N-terminus assumed; SMILES N=C(N)NCCC[C@H](N)C(=O)NCC(=O)N[C@@H](Cc1ccccc1)C(=O)N[C@@H](CC1CCCCC1)C(N)=O) [Peptide 2]
[1]; [5]
  Activity: antagonist
[2]; listed as Arg-Gly-Phe-Cha
  hypoglycaemic effect (reduction of basal blood glucose level): no hypoglycaemic effect
[2]; listed as peptide 2
  hypoglycaemic effect (reduction of basal blood glucose level): significant hypoglycaemic effects

## Arg-Gly-Phe-Phe-NH2 (RGFF-NH2) [Peptide 1]
[1]; [5]
  Activity: active
[1]
  insulin-potentiating activity on in vitro glycogen synthesis (in words): stimulated glycogen synthesis
[2]; listed as Arg-Gly-Phe-Phe
  hypoglycaemic effect (reduction of basal blood glucose level): reduced basal blood glucose levels
[2]; listed as peptide 1
  hypoglycaemic effect (reduction of basal blood glucose level): significant hypoglycaemic effects

## Arg-Leu-Phe-Asp-Asn-Ala (RLFDNA-NH2) [Peptide 5]
[1]; Table 5, compared to insulin alone
  Activity: inactive
[1]
  insulin-potentiating activity on in vitro glycogen synthesis (in words): abolished
[2]
  hypoglycaemic effect (reduction of basal blood glucose level): no hypoglycaemic effect
Normal male Wistar rats; listed as Asn^11-hGH(8-13)
  insulin-potentiating effect on decreasing blood glucose in IVITT (in words): no such effect
Normal male Wistar rats; listed as linear hGH(8-13)
  insulin-potentiating effect on decreasing blood glucose in IVITT (in words): no activity
Normal male Wistar rats; 15 min
  Reduction in Blood Glucose: 0.90 ± 0.09 mmol/L
Normal male Wistar rats; 30 min
  Reduction in Blood Glucose: 1.01 ± 0.11 mmol/L
Normal male Wistar rats; 45 min
  Reduction in Blood Glucose: 1.07 ± 0.15 mmol/L
Normal male Wistar rats; 60 min
  Reduction in Blood Glucose: 1.06 ± 0.12 mmol/L

## Arg-Leu-Phe-Asu-Asn-Ala (RLFDNA-NH2) [Peptide 6]
[1]
  insulin-potentiating activity on in vitro glycogen synthesis (in words): diminished insulin-potentiating effect
[2]
  hypoglycaemic effect (reduction of basal blood glucose level): significant hypoglycaemic effects
[2]; listed as Asu^11-hGH(8-13) amide
  hypoglycaemic effect (reduction of basal blood glucose level): diminished insulin-potentiating effect
Normal male Wistar rats
  insulin-potentiating effect on decreasing blood glucose in IVITT (in words): significant
Normal male Wistar rats; listed as Asu^11-hGH(8-13)
  insulin-potentiating effect on decreasing blood glucose in IVITT (in words): lower potency
Normal male Wistar rats; 15 min
  Reduction in Blood Glucose: 0.93 ± 0.17 mmol/L
Normal male Wistar rats; 30 min
  Reduction in Blood Glucose: 1.58 ± 0.12 mmol/L
Normal male Wistar rats; 45 min
  Reduction in Blood Glucose: 1.50 ± 0.15 mmol/L
Normal male Wistar rats; 60 min
  Reduction in Blood Glucose: 1.50 ± 0.19 mmol/L

## Leu-Ser-Arg-Leu-Phe-Asu-Asn-Ala (LSRLFDNA-NH2; not fully specified; printed as Leu-Ser-Arg-Leu-Phe-Asu-Asn-Ala) [Peptide 7]
Normal male Wistar rats
  insulin-potentiating effect on decreasing blood glucose in IVITT (in words): significant
Normal male Wistar rats; 15 min
  Reduction in Blood Glucose: 1.08 ± 0.09 mmol/L
Normal male Wistar rats; 30 min
  Reduction in Blood Glucose: 1.38 ± 0.13 mmol/L
Normal male Wistar rats; 45 min
  Reduction in Blood Glucose: 1.65 ± 0.12 mmol/L
Normal male Wistar rats; 45 min, listed as Asu^11-hGH(6-13)
  Reduction in Blood Glucose: 1.65 ± 0.12 mmol/L
Normal male Wistar rats; 60 min
  Reduction in Blood Glucose: 1.77 ± 0.19 mmol/L
[3]
  glucose tolerance: improve glucose tolerance
[4]
  effect on insulin receptor tyrosine kinase activity: stimulating

## Leu-Ser-Lys-Leu-Phe-Asu-Asn-Ala (LSKLFDNA-NH2; not fully specified; printed as Leu-Ser-Lys-Leu-Phe-Asu-Asn-Ala) [Peptide 8]
[1]
  insulin-potentiating activity on in vitro glycogen synthesis (in words): active
Normal male Wistar rats
  insulin-potentiating effect on decreasing blood glucose in IVITT (in words): significant
Normal male Wistar rats; 15 min
  Reduction in Blood Glucose: 1.08 ± 0.10 mmol/L
Normal male Wistar rats; 30 min
  Reduction in Blood Glucose: 1.35 ± 0.14 mmol/L
Normal male Wistar rats; 45 min
  Reduction in Blood Glucose: 1.92 ± 0.17 mmol/L
Normal male Wistar rats; 60 min
  Reduction in Blood Glucose: 1.78 ± 0.17 mmol/L
